Test results from ChEMBL document CHEMBL2331400, “Structure-based design and evaluation of naphthalene diimide G-quadruplex ligands as telomere targeting agents in pancreatic cancer cells” (J Med Chem, 2013).
Activity calls are given as the source filed them. No cut-off for these calls is given here.

Tests used:
WI-38 = assay: Cytotoxicity against human WI38 cells assessed as growth inhibition after 96 hrs by SRB assay; type: cell-based; settings: WI-38, 96 h
MCF7 = assay: Cytotoxicity against human MCF7 cells assessed as growth inhibition after 96 hrs by SRB assay; type: functional, cell-based; settings: MCF7, 96 h
786-0 = assay: Cytotoxicity against human 786-0 cells assessed as growth inhibition after 96 hrs by SRB assay; type: functional, cell-based; settings: 786-0, 96 h
[1] = Cytotoxicity against human RCC4 cells assessed as growth inhibition after 96 hrs by SRB assay; type: functional, cell-based; settings: RCC4, 96 h
A549 = assay: Cytotoxicity against human A549 cells assessed as growth inhibition after 96 hrs by SRB assay; type: functional, cell-based; settings: A549, 96 h
unidentified [2] = assay: Stabilization of HSP90b promoter sequence 5'-FAM-d(GGGCGGGCCAAAGGGAAGGGG)-TAMRA-3' (unknown origin) assessed as melting temperature at 1 uM by FRET assay
unidentified [3] = assay: Stabilization of HSP90a promoter sequence 5'-FAM-d(GGGCCAAAGGGAAGGGGTGGG)-TAMRA-3' (unknown origin) assessed as melting temperature at 1 uM by FRET assay
Homo sapiens = organism: Homo sapiens; assay: Stabilization of human telomeric G-quadruplex DNA sequence 5'-FAM-d(GGG[TTAGGG]3)-TAMRA-3' assessed as melting temperature at 1 uM by FRET assay
unidentified [4] = assay: Stabilization of duplex DNA T-loop (unknown origin) 5'-FAM-dTATAGCTATA-HEG-TATAGCTATA-TAMRA-3' assessed as melting temperature at 1 uM by FRET assay
MIA PaCa-2 [5] = assay: Induction of senescence in human MIAPaCa2 cells at 25 to 50 nM after 7 days by beta-galactosidase assay relative to vehicle-treated control; type: functional, cell-based
MIA PaCa-2 [6] = assay: Inhibition of telomerase activity in human MIAPaCa2 cells assessed as telomere elongation at 25 to 50 nM by TRAP-LIG assay; type: cell-based
MIA PaCa-2 [7] = assay: Inhibition of telomerase activity in human MIAPaCa2 cells assessed as telomere elongation up to 10 uM after 7 days by TRAP-LIG assay; type: cell-based
MIA PaCa-2 [8] = assay: Cytotoxicity against human MIAPaCa2 cells assessed as growth inhibition after 96 hrs by SRB assay; type: functional, cell-based; settings: MIA PaCa-2, 96 h
MIA PaCa-2 [9] = assay: Induction of senescence in human MIAPaCa2 cells at 3.3 to 6.6 nM after 7 days by beta-galactosidase assay relative to vehicle-treated control; type: functional
[10] = Selectivity ratio of IC50 for human WI-38 cells to IC50 for human 786-0 cells; type: ADME, cell-based; settings: WI-38 cells versus 786-0 cells, read-out: Ratio IC50

| ΔTm (unidentified [2]) [°C] | ΔTm (unidentified [3]) [°C] | ΔTm (Homo sapiens) [°C] | ΔTm (unidentified [4]) [°C] | Compound | IC50 (WI-38) [nM] | IC50 (MCF7) [nM] | IC50 (786-0) [nM] | IC50 [1] [nM] | IC50 (A549) [nM] | Activity (MIA PaCa-2 [5]) | inhibition (MIA PaCa-2 [6]) | inhibition (MIA PaCa-2 [7]) | IC50 (MIA PaCa-2 [8]) [nM] | Activity (MIA PaCa-2 [9]) [%] | selectivity ratio [10] |
| --- | --- | --- | --- | --- | --- | --- | --- | --- | --- | --- | --- | --- | --- | --- | --- |
| 27.6 | 30.6 | 24.7 | 1.7 | CN1CCN(CCNc2cc3c4c(c(NCCN5CCN(C)CC5)cc5c4c2C(=O)N(CCN2CCOCC2)C5=O)C(=O)N(CCN2CCOCC2)C3=O)CC1 | 1170 | 180 | 1480 | 5100 | 4930 |  |  |  |  |  |  |
| 32 | 36.3 | 28.3 | 1.3 | CN1CCN(CCCNc2cc3c4c(c(NCCCN5CCN(C)CC5)cc5c4c2C(=O)N(CCCN2CCN(C)CC2)C5=O)C(=O)N(CCCN2CCN(C)CC2)C3=O)CC1 | 9000 |  |  |  |  | Active | inactive |  |  |  |  |
| 31.1 | 31.9 | 27.8 | 8.1 | CN1CCN(CCNc2cc3c4c(c(NCCN5CCN(C)CC5)cc5c4c2C(=O)N(CCCN2CCOCC2)C5=O)C(=O)N(CCCN2CCOCC2)C3=O)CC1 | 2460 | 30 |  | 280 | < 10 |  |  | inactive | 10 |  |  |
| 1.1 | 0.9 | 0.2 | 0.3 | CN1CCN(CCCNc2cc3c4c(c(NCCCN5CCN(C)CC5)cc5c4c2C(=O)N(Cc2ccco2)C5=O)C(=O)N(Cc2ccco2)C3=O)CC1 | 6840 | 2610 | 1100 | 3110 | 2410 |  |  |  | 2830 | 50 |  |
| 0.8 | 0.7 | 0.1 | 0.2 | CN1CCN(CCCNc2cc3c4c(c(NCCCN5CCN(C)CC5)cc5c4c2C(=O)N(CC2CCOCC2)C5=O)C(=O)N(CC2CCOCC2)C3=O)CC1 | 12600 | 3120 | 1200 | 8380 | 2920 |  |  |  | 2500 |  | 10 |
| 23.8 | 29 | 0.5 | 0 | COCCCN1C(=O)c2cc(NCCCN3CCN(C)CC3)c3c4c(cc(NCCCN5CCN(C)CC5)c(c24)C1=O)C(=O)N(CCCOC)C3=O | 3320 | 5620 | 7170 | 10500 | 2540 |  |  | inactive | 2790 |  |  |
| 29.1 | 33.9 | 27 | 0.8 | CN1CCN(CCCNc2cc3c4c(c(NCCCN5CCN(C)CC5)cc5c4c2C(=O)N(CCN2CCOCC2)C5=O)C(=O)N(CCN2CCOCC2)C3=O)CC1 | 610 | 170 | 630 | 1750 | 1550 |  |  |  | 40 |  |  |
| 21 | 27.1 | 22.7 | 0.2 | CN1CCN(CCCNc2cc3c4c(c(NCCCN5CCN(C)CC5)cc5c4c2C(=O)N(CC2CCCO2)C5=O)C(=O)N(CC2CCCO2)C3=O)CC1 (racemic) | > 10000 | > 10000 | > 10000 | > 10000 | 5570 |  |  | inactive | 5650 |  |  |
